Laboratory results reported in ChEMBL document CHEMBL1681632, “2-(4-carbonylphenyl)benzoxazole inhibitors of CETP: scaffold design and advancement in HDLc-raising efficacy” (Bioorg Med Chem Lett, 2011).

Target: T1, Cholesteryl ester transfer protein (Homo sapiens, UniProt P11597)
T1 sequence (P11597 whole entry): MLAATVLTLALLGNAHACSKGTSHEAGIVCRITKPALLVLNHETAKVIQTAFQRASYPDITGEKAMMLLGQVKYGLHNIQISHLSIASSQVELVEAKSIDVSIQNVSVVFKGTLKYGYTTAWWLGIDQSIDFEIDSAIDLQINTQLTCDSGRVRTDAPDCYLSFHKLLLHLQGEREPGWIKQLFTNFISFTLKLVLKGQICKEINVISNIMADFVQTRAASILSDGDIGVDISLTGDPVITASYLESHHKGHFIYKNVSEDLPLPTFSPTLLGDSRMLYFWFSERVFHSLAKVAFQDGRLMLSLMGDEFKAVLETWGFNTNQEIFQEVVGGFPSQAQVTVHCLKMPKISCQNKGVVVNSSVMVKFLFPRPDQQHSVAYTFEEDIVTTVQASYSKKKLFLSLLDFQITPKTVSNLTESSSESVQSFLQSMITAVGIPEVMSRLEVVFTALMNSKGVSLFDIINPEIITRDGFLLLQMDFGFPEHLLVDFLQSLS
Assay: Inhibition of CETP

Row | IC50 | SMILES
1 | 47 nM | COc1cccc(Cl)c1-c1ccc(N2CCC(CNC(=O)c3ccc(-c4nc5cc(C#N)cc(C(C)C)c5o4)cc3)CC2)nc1
2 | 39 nM | Cc1cccc(-c2ccc(N3CCC(CNC(=O)c4ccc(-c5nc6cc(C#N)cc(C(C)C)c6o5)cc4)CC3)nc2)c1
3 | 22 nM | Cc1ccc(OC(C)C)c(-c2ccc(N3CCC(CNC(=O)c4ccc(-c5nc6cc(C#N)cc(C(C)C)c6o5)cc4)CC3)nc2)c1
4 | 306 nM | COC(=O)c1cccc(N2CCC(CNC(=O)c3ccc(-c4nc5cc(C#N)cc(C(C)C)c5o4)cc3)CC2)n1
5 | 28 nM | CC(C)Oc1ccc(C(F)(F)F)cc1-c1ccc(N2CCC(CNC(=O)c3ccc(-c4nc5cc(C#N)cc(C(C)C)c5o4)cc3)CC2)nc1
6 | 18800 nM | Cc1cc(C#N)cc2nc(-c3ccc(NCC(O)CN4CCN(c5ccc(C(F)(F)F)cc5)CC4)cc3)oc12 (stereo not given)
7 | 413 nM | CC(C)c1cc(C#N)cc2nc(-c3ccc(C(=O)NCC4CCN(c5ccc(-c6cc(C(F)(F)F)ccc6OCc6ccccc6)cn5)CC4)cc3)oc12
8 | 300 nM | Cc1cc(C#N)cc2nc(-c3ccc(C(=O)NCC4CCN(c5ccc(C(F)(F)F)cc5)CC4)cc3)oc12
9 | 13 nM | CC(C)Oc1ccc(F)cc1-c1ccc(N2CCC(CNC(=O)c3ccc(-c4nc5cc(C#N)cc(C(C)C)c5o4)cc3)CC2)nc1
10 | 114 nM | CC(C)c1cc(C#N)cc2nc(-c3ccc(C(=O)NCC4CCN(c5ccccn5)CC4)cc3)oc12
11 | 3190 nM | N#Cc1cc(C(F)(F)F)c2oc(-c3ccc(C(=O)NCC4CCN(c5ccc(C(F)(F)F)cn5)CC4)cc3)nc2c1
12 | 2170 nM | Cc1cc(C#N)cc2nc(-c3ccc(C#CCN4CCN(c5ccc(C(F)(F)F)cc5)CC4)cc3)oc12
13 | 4550 nM | Cc1cc(C#N)cc2nc(-c3ccc(OCCN4CCN(c5ccc(C(F)(F)F)cc5)CC4)cc3)oc12
14 | 11600 nM | Cc1cc(C#N)cc2nc(-c3ccc(C(=O)NCCC4CCN(c5ccc(C(F)(F)F)cc5)CC4)cc3)oc12
15 | 114 nM | COC(=O)c1ccc(N2CCC(CNC(=O)c3ccc(-c4nc5cc(C#N)cc(C(C)C)c5o4)cc3)CC2)nc1
16 | 198 nM | CC(C)(C)c1cc(C#N)cc2nc(-c3ccc(C(=O)NCC4CCN(c5ccc(C(F)(F)F)cn5)CC4)cc3)oc12
17 | 874 nM | Cc1cc(C#N)cc2nc(-c3ccc(CC(O)CN4CCN(c5ccc(C(F)(F)F)cc5)CC4)cc3)oc12 (stereo not given)
18 | 31 nM | CC(C)COc1ccccc1-c1ccc(N2CCC(CNC(=O)c3ccc(-c4nc5cc(C#N)cc(C(C)C)c5o4)cc3)CC2)nc1
19 | 43 nM | CC(C)c1cc(C#N)cc2nc(-c3ccc(C(=O)NCC4CCN(c5ccc(-c6ccccc6)cn5)CC4)cc3)oc12
20 | 110 nM | COc1cccc(N2CCC(CNC(=O)c3ccc(-c4nc5cc(C#N)cc(C(C)C)c5o4)cc3)CC2)n1
21 | 29 nM | CC(C)Oc1ccccc1-c1ccc(N2CCC(CNC(=O)c3ccc(-c4nc5cc(C#N)cc(C(C)C)c5o4)cc3)CC2)nc1
22 | 2050 nM | Cc1cc(C#N)cc2nc(-c3ccc(C(=O)CCN4CCN(c5ccc(C(F)(F)F)cc5)CC4)cc3)oc12

Row | IC50 | SMILES
23 | 40 nM | CC(C)c1cc(C#N)cc2nc(-c3ccc(C(=O)NCC4CCN(c5ccc(C(F)(F)F)cn5)CC4)cc3)oc12
24 | 15 nM | Cc1cc(C#N)cc2nc(-c3ccc(NC(=O)CN4CCN(c5ccc(C(F)(F)F)cn5)CC4)cc3)oc12
25 | 22 nM | CC(C)c1cc(C#N)cc2nc(-c3ccc(C(=O)NCC4CCN(c5nccc(C(F)(F)F)n5)CC4)cc3)oc12
26 | 8940 nM | COC(Cc1ccc(-c2nc3cc(C#N)cc(C)c3o2)cc1)CN1CCN(c2ccc(C(F)(F)F)cc2)CC1 (stereo not given)
27 | > 10000 nM | CC(C)c1cc(C#N)cc2nc(-c3ccc(C(=O)NCC4CCN(c5ccc([N+](=O)[O-])cn5)CC4)cc3)oc12
28 | > 10000 nM | CC(C)c1cc(C#N)cc2nc(-c3ccc(C(=O)NCC4CCN(c5cccc(C(=O)O)n5)CC4)cc3)oc12
29 | 2250 nM | Cc1cc(C#N)cc2nc(-c3ccc(C(O)CCN4CCN(c5ccc(C(F)(F)F)cc5)CC4)cc3)oc12 (stereo not given)
30 | 19 nM | CC(C)c1ccccc1-c1ccc(N2CCC(CNC(=O)c3ccc(-c4nc5cc(C#N)cc(C(C)C)c5o4)cc3)CC2)nc1
31 | 48 nM | Cc1ccc(-c2ccc(N3CCC(CNC(=O)c4ccc(-c5nc6cc(C#N)cc(C(C)C)c6o5)cc4)CC3)nc2)cc1
32 | 61 nM | CC(C)c1cc(C#N)cc2nc(-c3ccc(C(=O)NCC4CCN(c5cc(C(F)(F)F)ccn5)CC4)cc3)oc12
33 | 24 nM | COc1cc(F)c(C(C)C)cc1-c1ccc(N2CCC(CNC(=O)c3ccc(-c4nc5cc(C#N)cc(C(C)C)c5o4)cc3)CC2)nc1
34 | 223 nM | CC(C)c1cc(C#N)cc2nc(-c3ccc(C(=O)NCC4CCN(c5ccc(Br)cn5)CC4)cc3)oc12
35 | 975 nM | Cc1cc(C#N)cc2nc(-c3ccc(CCCN4CCN(c5ccc(C(F)(F)F)cc5)CC4)cc3)oc12
36 | 229 nM | C=C(C)c1ccc(N2CCC(CNC(=O)c3ccc(-c4nc5cc(C#N)cc(C(C)C)c5o4)cc3)CC2)nc1
37 | 5740 nM | Cc1cc(C#N)cc2nc(-c3ccc(CC(=O)CN4CCN(c5ccc(C(F)(F)F)cc5)CC4)cc3)oc12
38 | 2610 nM | Cc1cc(C#N)cc2nc(-c3ccc(C(=O)N(C)CC4CCN(c5ccc(C(F)(F)F)cc5)CC4)cc3)oc12
39 | 4030 nM | Cc1cc(C#N)cc2nc(-c3ccc(C(=O)N4CCN(c5ccc(C(F)(F)F)cc5)CC4)cc3)oc12
40 | 2740 nM | Cc1cc(C#N)cc2nc(-c3ccc(N4CCC(N5CCN(c6ccc(C(F)(F)F)cc6)CC5)C4=O)cc3)oc12 (stereo not given)
41 | 131 nM | C=C(C)c1cc(C#N)cc2nc(-c3ccc(C(=O)NCC4CCN(c5ccc(C(F)(F)F)cn5)CC4)cc3)oc12
42 | 243 nM | N#Cc1cc(C2CC2)c2oc(-c3ccc(C(=O)NCC4CCN(c5ccc(C(F)(F)F)cn5)CC4)cc3)nc2c1
43 | 37 nM | CC(C)c1cc(C#N)cc2nc(-c3ccc(C(=O)NCC4CCN(c5cccc(C(F)(F)F)n5)CC4)cc3)oc12

Tested on: Mus musculus
Assay: Antiatherogenic activity in transgenic mouse PD model assessed as rise in HDL-cholesterol level at 10 mg/kg
Format: functional

Row | SMILES | Activity
44 | Cc1ccc(OC(C)C)c(-c2ccc(N3CCC(CNC(=O)c4ccc(-c5nc6cc(C#N)cc(C(C)C)c6o5)cc4)CC3)nc2)c1 | 28 mg/dL
45 | CC(C)Oc1ccc(F)cc1-c1ccc(N2CCC(CNC(=O)c3ccc(-c4nc5cc(C#N)cc(C(C)C)c5o4)cc3)CC2)nc1 | 24 mg/dL
46 | Cc1cc(C#N)cc2nc(-c3ccc(NC(=O)CN4CCN(c5ccc(C(F)(F)F)cc5)CC4)cc3)oc12 | 24 mg/dL
47 | CC(C)c1cc(C#N)cc2nc(-c3ccc(C(=O)NCC4CCN(c5ccc(-c6ccccc6)cn5)CC4)cc3)oc12 | 22 mg/dL
48 | CC(C)c1cc(C#N)cc2nc(-c3ccc(C(=O)NCC4CCN(c5ccc(C(F)(F)F)cn5)CC4)cc3)oc12 | 16 mg/dL
49 | Cc1cc(C#N)cc2nc(-c3ccc(NC(=O)CN4CCN(c5ccc(C(F)(F)F)cn5)CC4)cc3)oc12 | 21 mg/dL
50 | CC(C)c1cc(C#N)cc2nc(-c3ccc(C(=O)NCC4CCN(c5nccc(C(F)(F)F)n5)CC4)cc3)oc12 | 7 mg/dL
